Experimental data published in ChEMBL document CHEMBL1201862, “PubChem BioAssay data set” (2004).
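Interpolation was linear, between the two tested concentrations surrounding the appropriate level; five concentrations were tested over 48 hours in 96-well plates. GI50 is the concentration that inhibits growth by half.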 Active and inactive are the calls of the source. No stated cut-off is given here; in the data, active = GI50 up to about 1.1 µM and inactive = higher.

Experiments:
Experiment in all cases: inhibition of tumour cell growth, NCI panel, 48 h
[1] = system: Malme-3M
[2] = system: Hs-578T
[3] = system: HCC 2998
[4] = system: HOP-92
[5] = system: UACC-62
[6] = system: SK-OV-3
[7] = system: HT-29
[8] = system: SW-620
[9] = system: DU-145
[10] = system: M14
[11] = system: SNB-19
[12] = system: MDA-MB-435
[13] = system: MCF7
[14] = system: SF-539
[15] = system: COLO 205
[16] = system: UO-31
[17] = system: NCI/ADR-RES
[18] = system: MDA-N
[19] = system: HCT-116
[20] = system: CCRF-CEM

Compound | GI50 [1] | GI50 [2] | GI50 [3] | GI50 [4] | GI50 [5] | GI50 [6] | GI50 [7] | GI50 [8] | GI50 [9] | GI50 [10] | GI50 [11] | GI50 [12] | GI50 [13] | GI50 [14] | GI50 [15] | GI50 [16] | GI50 [17] | GI50 [18] | GI50 [19] | GI50 [20]
CN(C)C(=S)/N=c1\ssc(=S)n1Cc1ccccc1 | 0.243 µM (active) | 0.193 µM (active) | 0.57 µM (active) | 0.342 µM (active) | 0.312 µM (active) | 0.434 µM (active) | 0.308 µM (active) | 0.201 µM (active) | 1.79 µM (inactive) | 0.301 µM (active) | 1.08 µM (active) | 0.0337 µM (active) | 0.82 µM (active) | 0.309 µM (active) | 0.288 µM (active) | 0.667 µM (active) | 0.119 µM (active) | 0.0348 µM (active) | 0.344 µM (active) | 0.411 µM (active)
O=Cc1[nH]c(=O)[nH]c(=O)c1C(=O)O | > 100 µM (inactive) | > 100 µM (inactive) | > 100 µM (inactive) | > 100 µM (inactive) | > 100 µM (inactive) | > 100 µM (inactive) | > 100 µM (inactive) | > 100 µM (inactive) | > 100 µM (inactive) | > 100 µM (inactive) | > 100 µM (inactive) | > 100 µM (inactive) | > 100 µM (inactive) | > 100 µM (inactive) | > 100 µM (inactive) | > 100 µM (inactive) | > 100 µM (inactive) | > 100 µM (inactive) | > 100 µM (inactive) | > 100 µM (inactive)
CN/C(=N\N=C1/C(=O)Nc2ccccc21)SCC(=O)c1ccc(Br)cc1 | 13.5 µM (inactive) | 10.9 µM (inactive) | 5.26 µM (inactive) | 20.7 µM (inactive) | 50.1 µM (inactive) | 9.04 µM (inactive) | 8.59 µM (inactive) | 2.42 µM (inactive) | 6.82 µM (inactive) | 11.7 µM (inactive) | 32.4 µM (inactive) | 9.57 µM (inactive) | 3.48 µM (inactive) | 6.38 µM (inactive) | 41.8 µM (inactive) | 1.04 µM (active) | 6.9 µM (inactive) | 21.3 µM (inactive) | 4.53 µM (inactive) | 5.46 µM (inactive)
COc1ccc(-c2c3c(cc4cc5c(cc24)OCO5)C(=O)OC3)cc1OC | 0.51 µM (active) | 6.22 µM (inactive) | 2.99 µM (inactive) | 0.771 µM (active) | 0.507 µM (active) | 13.4 µM (inactive) | 0.215 µM (active) | 2.19 µM (inactive) | 2.7 µM (inactive) | 0.305 µM (active) | 16.1 µM (inactive) | 2.43 µM (inactive) | 4.13 µM (inactive) | 3.5 µM (inactive) | 0.383 µM (active) | 3.15 µM (inactive) | 0.132 µM (active) | 2.01 µM (inactive) | 0.466 µM (active) | 4.06 µM (inactive)
